Laboratory results taken from ChEMBL document CHEMBL6153040, “Discovery of the salicylaldehyde-based compound DDO-02267 as a lysine-targeting covalent inhibitor of ALKBH5” (Eur J Med Chem, 2025).
The source made the active and inactive calls. The calls are words filed in the database; no cut-off is given here.

How the values were obtained:
[1] = target: T1, RNA demethylase ALKBH5 (Homo sapiens, UniProt Q6P6C2); assay: Inhibition of ALKBH5 (66 to 292 residues) (unknown origin) extracted from Escherichia coli BL21 (DE3) cells using m6A ssDNA as substrate assessed as Kinact/Ki ratio measured after 6 hrs by fluorescence polarization assay
Target sequence in this assay (Q6P6C2 2-394 limits assumed): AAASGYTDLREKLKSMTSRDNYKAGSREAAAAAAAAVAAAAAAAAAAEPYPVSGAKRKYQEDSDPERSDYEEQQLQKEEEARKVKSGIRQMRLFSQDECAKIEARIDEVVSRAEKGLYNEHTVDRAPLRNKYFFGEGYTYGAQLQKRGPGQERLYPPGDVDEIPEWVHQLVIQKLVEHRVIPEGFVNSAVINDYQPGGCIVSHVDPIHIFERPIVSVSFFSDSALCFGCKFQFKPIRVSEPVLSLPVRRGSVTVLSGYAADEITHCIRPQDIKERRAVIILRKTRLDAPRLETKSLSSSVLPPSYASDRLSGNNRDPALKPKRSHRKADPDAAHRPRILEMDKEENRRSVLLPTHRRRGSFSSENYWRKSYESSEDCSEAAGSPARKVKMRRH

[2] = target: T1, RNA demethylase ALKBH5; assay: Binding affinity to ALKBH5 (66 to 292 residues) (unknown origin) extracted from Escherichia coli BL21 (DE3) cells assessed as dissociation constant incubated for 1.5 hrs by MST analysis
Target sequence in this assay (Q6P6C2 whole entry, the tested form may be a part): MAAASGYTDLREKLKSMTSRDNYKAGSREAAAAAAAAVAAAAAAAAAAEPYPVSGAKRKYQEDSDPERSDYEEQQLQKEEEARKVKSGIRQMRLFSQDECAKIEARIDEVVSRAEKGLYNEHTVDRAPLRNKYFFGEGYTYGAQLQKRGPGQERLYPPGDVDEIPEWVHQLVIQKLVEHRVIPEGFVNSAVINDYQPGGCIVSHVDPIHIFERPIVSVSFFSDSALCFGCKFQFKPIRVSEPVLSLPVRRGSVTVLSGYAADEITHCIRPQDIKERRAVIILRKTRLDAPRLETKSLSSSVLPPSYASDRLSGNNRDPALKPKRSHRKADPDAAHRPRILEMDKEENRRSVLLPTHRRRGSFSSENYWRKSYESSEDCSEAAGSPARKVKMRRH

[3] = tested on: MOLM-13; assay: Induction of cell cycle arrest in human MOLM-13 cells assessed as accumulation of cells at S phase at 40 uM incubated for 72 hrs by flow cytometry analysis (reference value: 17.47 %); format: functional
[4] = target: T2, Alpha-ketoglutarate-dependent dioxygenase alkB homolog 3 (Homo sapiens) (UniProt Q96Q83); assay: Induction of thermal stabilization of ALKBH3 (unknown origin) assessed as change in melting temperature by thermal shift assay
T2 sequence (whole entry): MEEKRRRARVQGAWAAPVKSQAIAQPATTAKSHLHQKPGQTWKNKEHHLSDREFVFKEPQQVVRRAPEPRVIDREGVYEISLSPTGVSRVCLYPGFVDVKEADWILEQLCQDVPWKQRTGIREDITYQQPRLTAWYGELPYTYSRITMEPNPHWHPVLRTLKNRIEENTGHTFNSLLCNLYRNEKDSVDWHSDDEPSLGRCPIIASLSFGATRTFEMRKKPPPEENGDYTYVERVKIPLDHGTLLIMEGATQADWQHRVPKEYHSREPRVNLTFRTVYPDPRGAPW

[5] = target: T1, RNA demethylase ALKBH5; assay: Inhibition of ALKBH5 (66 to 292 residues) (unknown origin) extracted from Escherichia coli BL21 (DE3) cells using m6A ssDNA as substrate measured after 2 hrs by fluorescence polarization assay
Target sequence in this assay (Q6P6C2 whole entry, the tested form may be a part): as the sequence (Q6P6C2 whole entry, the tested form may be a part) above

[6] = target: T1, RNA demethylase ALKBH5; assay: Binding affinity to ALKBH5 (66 to 292 residues) (unknown origin) extracted from Escherichia coli BL21 (DE3) cells assessed as dissociation constant incubated for 4 hrs by MST analysis
Target sequence in this assay (Q6P6C2 whole entry, the tested form may be a part): as the sequence (Q6P6C2 whole entry, the tested form may be a part) above

[7] = target: T1, RNA demethylase ALKBH5; assay: Inhibition of ALKBH5 in human MV4-11 cells assessed as increase in m6A methylation levels by dot blot assay; format: cell-based
Target sequence in this assay (Q6P6C2 2-394 limits assumed): as the sequence (Q6P6C2 2-394 limits assumed) above

[8] = target: T3, Alpha-ketoglutarate-dependent dioxygenase FTO (Homo sapiens, UniProt Q9C0B1); assay: Inhibition of FTO (32 to 505 residues) (unknown origin) extracted from Escherichia coli BL21 (DE3) cells by fluorescence polarization assay
[9] = target: T1, RNA demethylase ALKBH5; assay: Binding affinity to ALKBH5 (66 to 292 residues) (unknown origin) extracted from Escherichia coli BL21 (DE3) cells assessed as dissociation constant by ITC analysis
Target sequence in this assay (Q6P6C2 whole entry, the tested form may be a part): as the sequence (Q6P6C2 whole entry, the tested form may be a part) above

[10] = tested on: MOLM-13; assay: Downregulation of AXL mRNA expression levels in human MOLM-13 cells at 10 to 80 uM incubated for 72 hrs by qRT-PCR analysis; format: functional, cell-based; settings: dose 10-80 µM
[11] = target: T4, Alpha-ketoglutarate-dependent dioxygenase alkB homolog 3 (Homo sapiens, UniProt Q96Q83); assay: Inhibition of ALKBH3 (unknown origin) by fluorescence polarization assay
T4 sequence (Q96Q83 whole entry): T2 sequence (whole entry)

[12] = tested on: MOLM-13; assay: Induction of apoptosis in human MOLM-13 cells assessed as early apoptotic cells at 40 uM incubated for 72 hrs by Annexin V FITC/PI staining based flow cytometry analysis (reference value: 4.32%); format: functional
[13] = tested on: MOLM-13; assay: Induction of apoptosis in human MOLM-13 cells assessed as viable cells at 40 uM incubated for 72 hrs by Annexin V FITC/PI staining based flow cytometry analysis (reference value: 89.65%); format: functional; settings: read-out: Activity
[14] = target: T1, RNA demethylase ALKBH5; assay: Potency index, ratio of 2-(((2-nitrophenyl)sulfonyl)carbamoyl)isonicotinic acid IC50 to test compound IC50 for inhibition of ALKBH5 (66 to 292 residues) (unknown origin) extracted from Escherichia coli BL21 (DE3) cells using m6A ssDNA as substrate measured after 1 hrs by fluorescence polarization assay
Target sequence in this assay (Q6P6C2 2-394 limits assumed): as the sequence (Q6P6C2 2-394 limits assumed) above

[15] = tested on: RNA demethylase ALKBH5 (Homo sapiens), Q6P6C2 [K132E]; assay: Induction of thermal stabilization of ALKBH5 K132E mutant (66 to 292 residues) (unknown origin) extracted from Escherichia coli BL21 (DE3) cells assessed as change in melting temperature by thermal shift assay
[16] = target: T1, RNA demethylase ALKBH5; assay: Inhibition of ALKBH5 (66 to 292 residues) (unknown origin) extracted from Escherichia coli BL21 (DE3) cells using m6A ssDNA as substrate measured immediately by fluorescence polarization assay
Target sequence in this assay (Q6P6C2 whole entry, the tested form may be a part): as the sequence (Q6P6C2 whole entry, the tested form may be a part) above

[17] = target: T1, RNA demethylase ALKBH5; assay: Covalent binding affinity to ALKBH5 (66 to 292 residues) (unknown origin) extracted from Escherichia coli BL21 (DE3) cells at Lys132 residue by HPLC-MS/MS analysis
Target sequence in this assay (Q6P6C2 2-394 limits assumed): as the sequence (Q6P6C2 2-394 limits assumed) above

[18] = tested on: MOLM-13; assay: Induction of apoptosis in human MOLM-13 cells assessed as late apoptotic cells at 40 uM incubated for 72 hrs by Annexin V FITC/PI staining based flow cytometry analysis (reference value: 4.28 %); format: functional
[19] = target: T1, RNA demethylase ALKBH5; assay: Inhibition of ALKBH5 (66 to 292 residues) (unknown origin) extracted from Escherichia coli BL21 (DE3) cells using m6A ssDNA as substrate measured after 240 mins by fluorescence polarization assay
Target sequence in this assay (Q6P6C2 whole entry, the tested form may be a part): as the sequence (Q6P6C2 whole entry, the tested form may be a part) above

[20] = target: T3, Alpha-ketoglutarate-dependent dioxygenase FTO; assay: Inhibition of FTO (32 to 505 residues) (unknown origin) extracted from Escherichia coli BL21 (DE3) cells using m6A ssDNA as substrate incubated for 2 hrs by TBE-PAGE based restriction enzyme digestion assay
[21] = tested on: MOLM-13; assay: Induction of cell cycle arrest in human MOLM-13 cells assessed as accumulation of cells at G2/M phase at 40 uM incubated for 72 hrs by flow cytometry analysis (reference value: 17.53 %); format: functional
[22] = tested on: MOLM-13; assay: Induction of apoptosis in human MOLM-13 cells assessed as necrotic cells at 40 uM incubated for 72 hrs by Annexin V FITC/PI staining based flow cytometry analysis (reference value: 1.75 %); format: functional
[23] = Selectivity ratio of IC50 for FTO (32 to 505 residues) (unknown origin) extracted from Escherichia coli BL21 (DE3) cells to IC50 for ALKBH5 (66 to 292 residues) (unknown origin) extracted from Escherichia coli BL21 (DE3) cells by restriction enzyme digestion assay
[24] = target: T1, RNA demethylase ALKBH5; assay: Binding affinity to ALKBH5 (66 to 292 residues) (unknown origin) extracted from Escherichia coli BL21 (DE3) cells assessed as dissociation constant incubated for 3 hrs by MST analysis
[25] = tested on: MOLM-13; assay: Induction of apoptosis in human MOLM-13 cells assessed as viable cells at 80 uM incubated for 72 hrs by Annexin V FITC/PI staining based flow cytometry analysis (reference value: 89.65%); format: functional; settings: read-out: Activity
[26] = tested on: RNA demethylase ALKBH5 (Homo sapiens), Q6P6C2 [K132E]; assay: Induction of thermal stabilization of ALKBH5 K132E mutant (66 to 292 residues) (unknown origin) extracted from Escherichia coli BL21 (DE3) cells assessed as melting temperature by thermal shift assay (reference value: 47.05 degreeC)
[27] = target: T1, RNA demethylase ALKBH5; assay: Inhibition of ALKBH5 in human MV4-11 cells assessed as increase in m6A methylation levels by m6A RNA Methylation Quantification Kit based colorimetric analysis; format: cell-based; settings: dose 10-80 µM
Target sequence in this assay (Q6P6C2 2-394 limits assumed): as the sequence (Q6P6C2 2-394 limits assumed) above

[28] = target: T1, RNA demethylase ALKBH5; assay: Inhibition of ALKBH5 (66 to 292 residues) (unknown origin) extracted from Escherichia coli BL21 (DE3) cells using m6A ssDNA as substrate incubated for 2 hrs by TBE-PAGE based restriction enzyme digestion assay

RNA demethylase ALKBH5 (Homo sapiens), Q6P6C2 [K132E], sequence (Q6P6C2 whole entry K132E, the tested form may be a part): as the sequence (Q6P6C2 whole entry, the tested form may be a part) above, with K132E counted along it
T3 sequence (Q9C0B1 whole entry, the tested form may be a part): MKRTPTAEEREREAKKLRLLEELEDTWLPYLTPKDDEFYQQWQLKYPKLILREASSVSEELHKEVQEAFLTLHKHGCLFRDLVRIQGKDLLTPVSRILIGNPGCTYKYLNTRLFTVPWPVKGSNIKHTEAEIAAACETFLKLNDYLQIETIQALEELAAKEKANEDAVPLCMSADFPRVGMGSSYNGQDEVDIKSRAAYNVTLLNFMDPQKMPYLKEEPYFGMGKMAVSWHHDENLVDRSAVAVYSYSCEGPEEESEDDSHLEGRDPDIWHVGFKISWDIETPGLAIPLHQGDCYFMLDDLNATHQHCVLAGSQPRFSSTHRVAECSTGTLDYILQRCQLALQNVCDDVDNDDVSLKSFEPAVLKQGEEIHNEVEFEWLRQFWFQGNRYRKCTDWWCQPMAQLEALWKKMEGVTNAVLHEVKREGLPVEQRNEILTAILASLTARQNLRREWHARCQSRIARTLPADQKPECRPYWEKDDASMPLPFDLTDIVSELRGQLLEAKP

O=Cc1cc(S(=O)(=O)NC(=O)c2cc(C(=O)O)ccn2)c2ccccc2c1O
Ratio [1]: 0.03 µM⁻¹ min⁻¹ | Kd [2]: 1.14 µM | Activity [3]: 5.67% | ΔTm [4]: < 1 °C | IC50 [5]: 0.35 µM | Kd [6]: 0.65 µM | inhibition [7]: Active | IC50 [8]: 14.2 µM | Kd [9]: 2.8 µM | Activity [10]: Active | IC50 [11]: 11.7 µM | Activity [12]: 10.4% | viability at 40 µM [13]: 83% | Ratio IC50 [14]: 287 | ΔTm [15]: < 1 °C | IC50 [16]: 1.43 µM | Activity [17]: Active | Activity [18]: 4.62% | IC50 [19]: 0.26 µM | IC50 [20]: 19.7 µM | Activity [21]: 26.1% | Activity [22]: 2.03% | Ratio IC50 [23]: 10 | Kd [24]: 1.03 µM | viability at 80 µM [25]: 77.6% | Tm [26]: 46.1 °C | inhibition [27]: Dose-dependent-effect | IC50 [28]: 2.53 µM
